Measurements reported in publication PMC3462775 (PLoS ONE, 2012).
Converted amounts (≈) assume the structure as drawn. Bridge positions count the residues as written; N and C are the ends. Square brackets hold non-standard residues; d marks the D form. Peptide text beside a SMILES is read from it. I, II: the chains in the order shown. βAla = NCCC(=O)O

How the values were obtained:
[1] = tested on: E. coli ATCC 25922 biofilm; type: cell-based, Escherichia coli; conditions: ATCC 25922, 20 h
Description: Biofilm formation was performed by adapting the procedure described in [39] using the Calgary Biofilm Device (Innovotech, Innovotech Inc. Edmonton, Canada). Briefly, 96-well plates containing the bacterial inoculum were sealed with lids bearing 96 pegs on which the biofilm could build up. The plates were placed in an orbital incubator at 35°C (for P. aeruginosa and E. coli) or 37°C (for S. aureus) for 20 h under agitation at 125 rpm. Once biofilms formed, the lids were removed from the plates and the pegs were rinsed twice with phosphate buffered saline (PBS) to remove planktonic cells. The peg-lid was then transferred to a 96-well challenge microtiter plate, each well containing 200 µl of a twofold serial dilution of each peptide in LB medium. The challenge plate was incubated at 37°C for 2 hours. Peptide activity on pre-formed biofilm was evaluated by two independent methods: (i) visual observation of bacterial growth and (ii) counting of living bacterial cells after peptide treatment. In the first case, the peg-lid was removed from the challenge plate, rinsed with PBS and used to cover a 96-well recovery microtiter plate, each well containing 200 µl LB medium. The recovery plate was sealed, incubated at 37°C for 4 hours and then observed for any visible growth of bacteria detached from the peptide-treated biofilm. […]

S.aureus USA 300 = type: cell-based, Staphylococcus aureus
Description: (§1) MICs were determined using a standard microdilution assay as recommended by the Clinical and Laboratory Standards Institute. Assays were performed in triplicate using cation-supplemented Mueller-Hinton (MH) broth (Becton Dickinson, Franklin Lakes, NJ, USA) and a bacterial inoculum of 5x10^4 CFU/well, in a final volume of 100 µl. The tested concentrations ranged from 0.1 µM to 24 µM for both peptides. Results were recorded after 18–20 h of incubation at 37°C.

S.aureus 3851 = type: cell-based, Staphylococcus aureus
Description: as §1

E.coli W03BG0025 = type: cell-based, Escherichia coli
Description: as §1

K.pneumoniae ATCC 13833 = assay: MIC, standard microdilution assay; type: cell-based, Klebsiella pneumoniae; conditions: Reference strain, wild type; CLSI microdilution, cation-supplemented Mueller-Hinton broth, 5x10^4 CFU/well, 18–20 h at 37°C, triplicate
Description: as §1

[2] = tested on: S. aureus ATCC 25923 biofilm; type: cell-based, Staphylococcus aureus; conditions: for Minimum biofilm eradication concentration (MBEC): ATCC 25923, 20 h
Description: Biofilm formation was performed by adapting the procedure described in [39] using the Calgary Biofilm Device (Innovotech, Innovotech Inc. Edmonton, Canada). Briefly, 96-well plates containing the bacterial inoculum were sealed with lids bearing 96 pegs on which the biofilm could build up. The plates were placed in an orbital incubator at 35°C (for P. aeruginosa and E. coli) or 37°C (for S. aureus) for 20 h under agitation at 125 rpm. Once biofilms formed, the lids were removed from the plates and the pegs were rinsed twice with phosphate buffered saline (PBS) to remove planktonic cells. The peg-lid was then transferred to a 96-well challenge microtiter plate, each well containing 200 µl of a twofold serial dilution of each peptide in LB medium. The challenge plate was incubated at 37°C for 2 hours. Peptide activity on pre-formed biofilm was evaluated by two independent methods: (i) visual observation of bacterial growth and (ii) counting of living bacterial cells after peptide treatment. In the first case, the peg-lid was removed from the challenge plate, rinsed with PBS and used to cover a 96-well recovery microtiter plate, each well containing 200 µl LB medium. The recovery plate was sealed, incubated at 37°C for 4 hours and then observed for any visible growth of bacteria detached from the peptide-treated biofilm. Growth of bacteria in a particular well indicated regrowth of planktonic cells from surviving biofilm. Minimum biofilm eradication concentration (MBEC) was defined as the minimum peptide concentration preventing regrowth of bacteria from the treated biofilm within 4 hours.

[3] = biological target: T1, Pseudomonas aeruginosa elastase (Pseudomonas aeruginosa, UniProt P14756); type: in vitro ADME; conditions: 1 mM CaCl2 pH 7.8, 37°C; for stability to elastase (in words): HPLC and MS
T1 construct: purchased Calbiochem
Description: (§2) Tetrabranched M33-L or M33-D peptides (300 µg) were incubated at 37°C with Staphylococcus aureus aureolysin (3 µg, BioCol GmbH) or Pseudomonas aeruginosa elastase (3 µg, Calbiochem) in 300 µl 20 mM Tris-HCl, 1 mM CaCl2 pH 7.8. At indicated time intervals, 50 µl aliquots were removed, diluted with 950 µl of 0.1% trifluoroacetic acid (TFA)/water and analyzed by HPLC and mass spectrometry. Liquid chromatography was performed on Phenomenex Jupiter C18 analytical column (300 Å, 5 µm, 250×4.6 mm) in a 30 min gradient, using TFA 0.1%/water as solvent A and methanol as solvent B. Mass spectrometry analysis was performed on withdrawn samples and repeated on HPLC-eluted peaks with a Bruker Daltonic ultraflex MALDI TOF/TOF mass spectrometer.

[4] = biological target: T2, Staphylococcus aureus aureolysin (Staphylococcus aureus, UniProt P81177); type: in vitro ADME; conditions: 1 mM CaCl2 pH 7.8, 37°C; for time of stability / degradation on incubation with aureolysin: 300 µg peptide + 3 µg S. aureus aureolysin in 300 µl 20 mM Tris-HCl, HPLC and MALDI MS read-out
T2 construct: purchased BioCol GmbH
Description: as §2

[5] = Binding of LPS and LTA to immobilized peptides, surface plasmon resonance; conditions: SPR, biotinylated peptides immobilized on SA flow cells; LPS/LTA 10 µg/ml in HBS-EP+ pH 7.4, injected 180 sec at 30 µl/min
Description: Biotinylated peptides were immobilized on SA coated flow cells. M33-L and M33-D peptides, diluted to 10 µg/ml in HBS-EP+ buffer (10 mM Hepes, 150 mM NaCl, 3.4 mM EDTA, 0.05% polysorbate 20 pH 7.4), were injected for 90 sec at a flow rate of 10 µl/min, obtaining 550 RU and 580 RU for M33-L and M33-D respectively.
LTA and LPS molecules from different species (LPS from E. coli, K. pneumonia, P. aeruginosa and LTA from S. aureus and S. faecalis, were obtained from Sigma-Aldrich: L-3012, L-4268, L9143, L2515 and L4015, respectively) were diluted in HBS-EP+ buffer at the concentration of 10 µg/ml and injected for 180 sec with a flow rate of 30 µl/min over immobilized peptides. An empty flow cell was used as reference.

P.aeruginosa AV 65 = type: cell-based, Pseudomonas aeruginosa
Description: as §1

[6] = 300 µg peptide + 3 µg P. aeruginosa elastase, 20 mM Tris-HCl

T1 sequence (P14756 198-498): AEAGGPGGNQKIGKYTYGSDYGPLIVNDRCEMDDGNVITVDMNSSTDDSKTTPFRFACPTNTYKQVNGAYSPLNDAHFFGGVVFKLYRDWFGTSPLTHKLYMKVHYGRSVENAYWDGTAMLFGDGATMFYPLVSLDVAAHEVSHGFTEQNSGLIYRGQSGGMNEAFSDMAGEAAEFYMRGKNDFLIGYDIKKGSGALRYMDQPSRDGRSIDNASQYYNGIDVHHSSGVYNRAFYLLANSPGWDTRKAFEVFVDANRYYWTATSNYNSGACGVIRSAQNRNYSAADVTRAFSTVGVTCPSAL
T2 sequence (P81177 209-509): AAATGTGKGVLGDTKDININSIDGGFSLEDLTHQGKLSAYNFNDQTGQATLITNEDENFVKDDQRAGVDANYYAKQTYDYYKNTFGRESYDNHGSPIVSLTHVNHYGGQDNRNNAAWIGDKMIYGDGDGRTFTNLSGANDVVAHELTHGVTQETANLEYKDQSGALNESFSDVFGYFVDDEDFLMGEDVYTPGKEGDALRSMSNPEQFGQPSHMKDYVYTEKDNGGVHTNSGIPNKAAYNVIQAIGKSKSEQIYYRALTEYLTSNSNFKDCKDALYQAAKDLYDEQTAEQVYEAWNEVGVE

Structure (SMILES)	Minimum biofilm eradication concentration (MBEC) [1]	MIC (S.aureus USA 300)	MIC (S.aureus 3851)	MIC (E.coli W03BG0025)	MIC (K.pneumoniae ATCC 13833)	Minimum biofilm eradication concentration (MBEC) [2]	time of resistance to degradation by elastase ([3]; 300 µg peptide + 3 µg P. aeruginosa elastase in 300 µl 20 mM Tris-HCl, HPLC and MALDI MS read-out)	stability to elastase (in words) [3, 6]	time of stability / degradation on incubation with aureolysin [4]	binding and kinetic rates of LPS and LTA, M33-L compared with M33-D (in words) [5]	MIC (P.aeruginosa AV 65)	activity in biofilm eradication experiments with respect to M33-D ([2]; S. aureus biofilm eradication, relative to M33-D)	stability after 5 h incubation with elastase (in words) ([3]; 5 h, 300 µg peptide + 3 µg P. aeruginosa elastase, 20 mM Tris-HCl, HPLC peak of intact peptide still present)	stability to aureolysin (in words) ([4]; 300 µg peptide + 3 µg S. aureus aureolysin, 20 mM Tris-HCl, HPLC and MS)
CC[C@@H](C)[C@@H](NC(=O)[C@@H](CCCCN)NC(=O)[C@H](N)CCCCN)C(=O)N[C@H](CCCNC(=N)N)C(=O)N[C@@H](C(=O)N[C@H](CCCNC(=N)N)C(=O)N[C@H](CC(C)C)C(=O)N[C@H](CO)C(=O)N[C@H](C)C(=O)NCCCC[C@H](NC(=O)[C@@H](C)NC(=O)[C@@H](CO)NC(=O)[C@@H](CC(C)C)NC(=O)[C@@H](CCCNC(=N)N)NC(=O)[C@H](NC(=O)[C@@H](CCCNC(=N)N)NC(=O)[C@H](NC(=O)[C@@H](CCCCN)NC(=O)[C@H](N)CCCCN)[C@H](C)CC)C(C)C)C(=O)NCCCC[C@H](NC(=O)[C@H](CCCCNC(=O)[C@@H](C)NC(=O)[C@@H](CO)NC(=O)[C@@H](CC(C)C)NC(=O)[C@@H](CCCNC(=N)N)NC(=O)[C@H](NC(=O)[C@@H](CCCNC(=N)N)NC(=O)[C@H](NC(=O)[C@@H](CCCCN)NC(=O)[C@H](N)CCCCN)[C@H](C)CC)C(C)C)NC(=O)[C@@H](C)NC(=O)[C@@H](CO)NC(=O)[C@@H](CC(C)C)NC(=O)[C@@H](CCCNC(=N)N)NC(=O)[C@H](NC(=O)[C@@H](CCCNC(=N)N)NC(=O)[C@H](NC(=O)[C@@H](CCCCN)NC(=O)[C@H](N)CCCCN)[C@H](C)CC)C(C)C)C(=O)NCCC(=O)O)C(C)C [M33-D] (I: H-[dK][dK][dI][dR][dV][dR][dL][dS][dA]KK[βAla]-OH / II: H-[dK][dK][dI][dR][dV][dR][dL][dS][dA]K / III: H-[dK][dK][dI][dR][dV][dR][dL][dS][dA] / IV: H-[dK][dK][dI][dR][dV][dR][dL][dS][dA]; amide I:10-IV:C, I:11-II:C, II:10-III:C; N-terminus assumed)	3 µM	1.5 µM (≈ 7.02 µg/mL)	0.7 µM (≈ 3.28 µg/mL)	3 µM (≈ 14 µg/mL)	3 µM (≈ 14 µg/mL)	1.5 µM	≥ 24 h	highly stable	≥ 24 h	No significant difference in binding or kinetic rates	3 µM (≈ 14 µg/mL)			
CC[C@H](C)[C@H](NC(=O)[C@H](CCCCN)NC(=O)[C@@H](N)CCCCN)C(=O)N[C@@H](CCCNC(=N)N)C(=O)N[C@H](C(=O)N[C@@H](CCCNC(=N)N)C(=O)N[C@@H](CC(C)C)C(=O)N[C@@H](CO)C(=O)N[C@@H](C)C(=O)NCCCC[C@H](NC(=O)[C@H](C)NC(=O)[C@H](CO)NC(=O)[C@H](CC(C)C)NC(=O)[C@H](CCCNC(=N)N)NC(=O)[C@@H](NC(=O)[C@H](CCCNC(=N)N)NC(=O)[C@@H](NC(=O)[C@H](CCCCN)NC(=O)[C@@H](N)CCCCN)[C@@H](C)CC)C(C)C)C(=O)NCCCC[C@H](NC(=O)[C@H](CCCCNC(=O)[C@H](C)NC(=O)[C@H](CO)NC(=O)[C@H](CC(C)C)NC(=O)[C@H](CCCNC(=N)N)NC(=O)[C@@H](NC(=O)[C@H](CCCNC(=N)N)NC(=O)[C@@H](NC(=O)[C@H](CCCCN)NC(=O)[C@@H](N)CCCCN)[C@@H](C)CC)C(C)C)NC(=O)[C@H](C)NC(=O)[C@H](CO)NC(=O)[C@H](CC(C)C)NC(=O)[C@H](CCCNC(=N)N)NC(=O)[C@@H](NC(=O)[C@H](CCCNC(=N)N)NC(=O)[C@@H](NC(=O)[C@H](CCCCN)NC(=O)[C@@H](N)CCCCN)[C@@H](C)CC)C(C)C)C(=O)NCCC(=O)O)C(C)C [M33-L] (I: H-KKIRVRLSAKK[βAla]-OH / II: H-KKIRVRLSAK / III: H-KKIRVRLSA / IV: H-KKIRVRLSA; amide I:10-IV:C, I:11-II:C, II:10-III:C; N-terminus assumed)	3 µM	6 µM (≈ 28.1 µg/mL)	12 µM (≈ 56.2 µg/mL)	0.7 µM (≈ 3.28 µg/mL)	1.5 µM (≈ 7.02 µg/mL)	12 µM		poorly stable	≤ 1 h	No significant difference in binding or kinetic rates	3 µM (≈ 14 µg/mL)	12%	moderate peptide stability	not at all stable
